Laboratory results: PubChem BioAssay AID1996
≈ marks a conversion by molar mass, not a printed value.

Settings: buffer; pH 7.4; 200.0 µM

First: O=[N+]([O-])c1ccc(N2CCN(c3ccccn3)CC2)c(Cl)c1
Second: O=[N+]([O-])c1ccc(-n2ccnc2)cc1
The solubility kinetic of the first is lower: 0.8 µg/mL (≈ 2.51 µM) for the first, > 28.4 µg/mL for the second.

First: CC1CCN(C(=O)COC(=O)CCc2c[nH]c3ccccc23)CC1
Second: COc1cc2ccccc2cc1C(=O)N1CC(C)CC(C)C1 (stereo unspecified)
The solubility kinetic of the first is lower: 9 µg/mL (≈ 27.4 µM) for the first, > 44.6 µg/mL for the second.

[Cl-].c1ccc(CNc2cccc[nH+]2)cc1 and c1ccc(Cn2c(NCc3ccccn3)nc3ccccc32)cc1 cannot be ordered by solubility kinetic: > 33.1 µg/mL for the first, > 47.2 µg/mL for the second.

Going from O=C(Nc1ccccc1C(F)(F)F)c1ccccn1 to C/C(=N/NC(=O)c1ccccn1)c1ccncc1, the solubility kinetic rises from 6.7 µg/mL (≈ 25.2 µM) to > 36 µg/mL.

Compared with Cc1cc(NC(=O)COC(=O)C(C)Oc2ccc(Cl)cc2Cl)no1 (stereo unspecified), COC(=O)c1cccc(NC(=O)Nc2ccc(Cl)cc2Cl)c1 is lower in solubility kinetic: 42.2 µg/mL (≈ 113 µM) for the first, < 0.4 µg/mL for the second.

First: Cc1ccc(C(=O)NCCCNc2ccccc2[N+](=O)[O-])cc1
Second: Cc1ccc(C(=O)NCCC(=O)Nc2ccccc2C)cc1
The solubility kinetic of the first is lower: 3.4 µg/mL (≈ 10.9 µM) for the first, > 44.5 µg/mL for the second.

CC1CCCN(C(=O)CNS(=O)(=O)c2cccs2)C1 (stereo unspecified) and CC1CCCC(NC(=O)CNC(=O)c2cccs2)C1C (stereo unspecified) cannot be ordered by solubility kinetic: > 45.4 µg/mL for the first, > 44.2 µg/mL for the second.

First: O=C(COC(=O)c1cc(Br)ccc1Cl)NC1CCCC1
Second: COc1ccc(Cl)cc1NC(=S)NC1CCCC1
The solubility kinetic of the first is 1.9-fold higher: 5.6 µg/mL (≈ 15.5 µM) for the first, 3 µg/mL (≈ 10.5 µM) for the second.

O=C(Cc1cccc(C(F)(F)F)c1)N1CCCC1 and O=C(/C=C/c1ccc([N+](=O)[O-])cc1)OCC(=O)N1CCCC1 cannot be ordered by solubility kinetic: > 38.6 µg/mL for the first, > 45.6 µg/mL for the second.

First: Cc1cnc(NS(=O)(=O)c2ccc(Cl)cc2)c(Br)c1
Second: O=c1c(NCCc2ccc(Cl)cc2)c(-c2ccccc2)c1=O
The solubility kinetic of the first is higher: > 54.2 µg/mL for the first, 2.6 µg/mL (≈ 8.34 µM) for the second.

CS(=O)(=O)N1CCN(CC(=O)NC2CCCC2)CC1 and COc1ccc(NC(=O)C2CCCN(S(C)(=O)=O)C2)c(OC)c1 (stereo unspecified) cannot be ordered by solubility kinetic: > 43.4 µg/mL for the first, > 51.4 µg/mL for the second.

Going from CC(OC(=O)c1ccc(Cl)nc1)C(=O)NC(C)(C)C (stereo unspecified) to COC(=O)c1ccc(NC(=S)NC(=O)C2CCC2)cc1, the solubility kinetic falls from > 42.7 µg/mL to 4.9 µg/mL (≈ 16.8 µM).

Compared with OCCCc1cn(-c2ccccc2)c2ccccc12, CCOc1ccccc1C(=O)Nc1cccc2ccccc12 is lower in solubility kinetic: 22.1 µg/mL (≈ 87.9 µM) for the first, < 0.6 µg/mL for the second.

COc1ccc(N2CC(C(=O)NCc3ccco3)CC2=O)cc1 (stereo unspecified) and COc1ccc(C(=O)CN2C(=O)COc3ccccc32)cc1 are within 1.5-fold of each other in solubility kinetic: 32.2 µg/mL (≈ 102 µM) for the first, 43.1 µg/mL (≈ 145 µM) for the second.

O=C(O)C1C2C=CC(C2)C1C(=O)NCc1cccc(Cl)c1 (stereo unspecified) and O=C(O)/C=C\C(=O)NCc1cccnc1 cannot be ordered by solubility kinetic: 43.3 µg/mL (≈ 142 µM) for the first, > 30.9 µg/mL for the second.

First: O=C(Cc1cccs1)NCc1ccccc1Br
Second: Cc1ccc2[nH]c(C)c(CC(=O)NCc3ccccc3)c2c1
The solubility kinetic of the first is lower: 24.8 µg/mL (≈ 79.9 µM) for the first, > 43.9 µg/mL for the second.

First: CC(C)Oc1ccc(Cn2c(=O)oc3ccccc32)cc1
Second: CC(=O)Nc1ccc(/C=C/c2nc3ccccc3o2)cc1
The solubility kinetic of the first is 12-fold lower: 0.7 µg/mL (≈ 2.47 µM) for the first, 8.7 µg/mL (≈ 31.3 µM) for the second.

Compared with COc1ccc(OCC(=O)NCCCCCCNC(=O)COc2ccc(OC)cc2)cc1, COc1ccc(NC(=S)NCc2ccccc2)c(OC)c1 is 15-fold higher in solubility kinetic: 2.6 µg/mL (≈ 5.85 µM) for the first, 38.8 µg/mL (≈ 128 µM) for the second.

First: O=C(CN1CCN(Cc2ccc(F)cc2)CC1)NCc1ccccc1
Second: COc1ccccc1CNC(=O)CN1C(=O)NC(c2ccccc2)(c2ccccc2)C1=O
The solubility kinetic of the first is higher: > 51.2 µg/mL for the first, 3.1 µg/mL (≈ 7.22 µM) for the second.

CCN(Cc1ccccc1)C(=O)COC(=O)c1cnc(C)cn1 and CCC(C(=O)Nc1cc(C)cc(C)n1)c1ccccc1 (stereo unspecified) are within 1.5-fold of each other in solubility kinetic: 38 µg/mL (≈ 121 µM) for the first, 39.3 µg/mL (≈ 146 µM) for the second.

Going from Cc1ccc2nc(NCC(N)=O)nc(-c3ccccc3)c2c1 to CCC(=O)Nc1ccccc1-c1nc2ccccc2[nH]c1=O, the solubility kinetic rises from 1.4 µg/mL (≈ 4.79 µM) to > 44 µg/mL.

First: O=C(CSc1nccc(=O)[nH]1)Nc1ccc2ccccc2c1
Second: O=C1[C@@H]2C(c3cccnc3)=NO[C@@H]2C(=O)N1c1ccc2ccccc2c1
The solubility kinetic of the first is higher: > 46.7 µg/mL for the first, 43 µg/mL (≈ 125 µM) for the second.

COc1ccc2[nH]c3c(=O)n(CCN4CCOCC4)cnc3c2c1 and CCOc1ccc(NC(=S)NCCCN2CCOCC2)cc1 cannot be ordered by solubility kinetic: > 49.3 µg/mL for the first, > 48.5 µg/mL for the second.

Going from CSc1ccccc1NC(=O)COC(=O)/C=C/c1ccco1 to N#C/C(=C\c1ccccc1)C(=O)Nc1nncs1, the solubility kinetic rises from 16.9 µg/mL (≈ 53.3 µM) to > 38.4 µg/mL.

Compared with NC(=O)NC(=O)CN1C(=O)NC2(CCOc3ccccc32)C1=O (stereo unspecified), O=C(Nc1cccnc1)c1cc2c(s1)-c1ccccc1OC2 is lower in solubility kinetic: > 47.7 µg/mL for the first, 0.8 µg/mL (≈ 2.59 µM) for the second.

Compared with CCOc1ccc(-c2nc(CCl)cs2)cc1OC.Cl, CCOc1cccc(Nc2ccc([N+](=O)[O-])cn2)c1 is 11-fold lower in solubility kinetic: 27.2 µg/mL for the first, 2.4 µg/mL (≈ 9.26 µM) for the second.

Going from COc1ccc2[nH]c(C(=O)N3CCc4ccccc4C3)c(C)c2c1 to Cc1c(N)cc[n+](CC(=O)c2ccccc2)c1C.[Br-], the solubility kinetic rises from 2.6 µg/mL (≈ 8.12 µM) to > 48.2 µg/mL.

Cc1cc(C)cc(NC(=S)N2CCCC2)c1 and Cc1cc(C)cc(NC(=O)NCc2ccccn2)c1 cannot be ordered by solubility kinetic: > 35.2 µg/mL for the first, > 38.3 µg/mL for the second.

Cc1cc(C(=O)CCC(=O)NCC(=O)Nc2c(C)cccc2C)c(C)s1 and C=CCN1C(=O)CSC1=Nc1ccc(C(=O)O)cc1 cannot be ordered by solubility kinetic: > 55.9 µg/mL for the first, > 41.4 µg/mL for the second.

N#Cc1ccccc1OCC(=O)NCC(c1cccs1)N1CCOCC1 (stereo unspecified) and COc1cc(OC)cc(C(=O)NN2CCOCC2)c1 cannot be ordered by solubility kinetic: > 55.7 µg/mL for the first, > 39.9 µg/mL for the second.

With CCS(=O)(=O)N1CCC(C(=O)Oc2ccccc2OC)CC1 the solubility kinetic was > 49.1 µg/mL.
